≈ marks a conversion by molar mass, not a printed value. Numbered stars: 1 amine (or outer) side, 2 acyl side, 3 side chain; on linkers, the order of the positions; unused ones are H or OH. Bridge positions count the residues as written; N and C are the ends. Square brackets hold non-standard residues; d marks the D form. Peptide text beside a SMILES is read from it. * marks the point of attachment. Hpg(αMan(1-2)αMan) = N[C@H](C(=O)O)c1ccc(O[C@H]2O[C@H](CO)[C@@H](O)[C@H](O)[C@@H]2O[C@H]2O[C@H](CO)[C@@H](O)[C@H](O)[C@@H]2O)cc1; Octa(2Z,4E)dienoyl(7-Me) = CC(C)C/C=C/C=C\C(=O)*; X1 = NC(=O)[C@@H](O[*:3])[C@H](N[*:1])C(=O)[*:2]; Hpg(3-Cl) = N[C@H](C(=O)O)c1ccc(O)c(Cl)c1; d(aThr) = C[C@@H](O)[C@@H](N)C(=O)O; dHpg = N[C@@H](C(=O)O)c1ccc(O)cc1; Hpg = N[C@H](C(=O)O)c1ccc(O)cc1; aThr = C[C@H](O)[C@H](N)C(=O)O; dOrn = NCCC[C@@H](N)C(=O)O
Tests used:
Staphylococcus aureus [1] = experiment: Antibacterial activity against methicillin-resistant and vancomycin-intermediate resistant Staphylococcus aureus clinical isolate after 24 hrs by broth microdilution method; assay type: functional; details: read-out: MIC
Staphylococcus aureus [2] = experiment: Antibacterial activity against Staphylococcus aureus Smith after 24 hrs by broth microdilution method; assay type: functional; details: read-out: MIC
Candida albicans = experiment: Antifungal activity against Candida albicans SKF-2270 after 24 hrs by broth microdilution method; assay type: functional; details: read-out: MIC
Staphylococcus aureus [3] = experiment: Antibacterial activity against vancomycin-intermediate resistant Staphylococcus aureus clinical isolate in presence of 30% bovine serum after 24 hrs by broth microdilution method; assay type: functional
Staphylococcus aureus [4] = experiment: Antibacterial activity against methicillin-resistant Staphylococcus aureus clinical isolate after 24 hrs by broth microdilution method; assay type: functional; details: read-out: MIC
Enterococcus faecium [5] = experiment: Antibacterial activity against Enterococcus faecium after 24 hrs by broth microdilution method; assay type: functional; details: read-out: MIC
Escherichia coli = experiment: Antibacterial activity against Escherichia coli SKF-12140 after 24 hrs by broth microdilution method; assay type: functional; details: read-out: MIC
Enterococcus faecium [6] = experiment: Antibacterial activity against vancomycin A-resistant Enterococcus faecium clinical isolate in presence of 30% bovine serum after 24 hrs by broth microdilution method; assay type: functional
Staphylococcus aureus [7] = experiment: Antibacterial activity against Staphylococcus aureus Smith in presence of 30% bovine serum after 24 hrs by broth microdilution method; assay type: functional
Streptococcus pyogenes = experiment: Antibacterial activity against Streptococcus pyogenes C203 after 24 hrs by broth microdilution method; assay type: functional; details: C203, 24 h, read-out: MIC
Enterococcus faecalis [8] = experiment: Antibacterial activity against vancomycin A-resistant Enterococcus faecalis after 24 hrs by broth microdilution method; assay type: functional; details: read-out: MIC
Enterococcus faecalis [9] = experiment: Antibacterial activity against Enterococcus faecalis after 24 hrs by broth microdilution method; assay type: functional; details: read-out: MIC
Enterococcus faecium [10] = experiment: Antibacterial activity against vancomycin A-resistant Enterococcus faecium clinical isolate after 24 hrs by broth microdilution method; assay type: functional; details: read-out: MIC
Enterococcus faecalis [11] = experiment: Antibacterial activity against vancomycin-resistant Enterococcus faecalis in presence of 30% bovine serum after 24 hrs by broth microdilution method; assay type: functional
Staphylococcus aureus [12] = experiment: Antibacterial activity against vancomycin-intermediate resistant Staphylococcus aureus clinical isolate after 24 hrs by broth microdilution method; assay type: functional
[13] = Toxicity assessed as hemolysis in erythrocytes at 90 mg/L; assay type: cell-based, Erythrocyte; details: human, erythrocytes; read-out: Activity
[14] = Toxicity assessed as hemolysis in erythrocytes at 180 mg/L; assay type: cell-based, Erythrocyte; details: human, erythrocytes; read-out: Activity
[15] = Toxicity assessed as hemolysis in erythrocytes at 100 mg/L; assay type: cell-based, Erythrocyte; details: human, read-out: Activity

Row | SMILES | MIC (Staphylococcus aureus [1]) [µg/mL] | MIC (Staphylococcus aureus [2]) [µg/mL] | MIC (Candida albicans) [µg/mL] | MIC (Staphylococcus aureus [3]) [µg/mL] | MIC (Staphylococcus aureus [4]) [µg/mL] | MIC (Enterococcus faecium [5]) [µg/mL] | MIC (Escherichia coli) [µg/mL] | MIC (Enterococcus faecium [6]) [µg/mL] | MIC (Staphylococcus aureus [7]) [µg/mL] | MIC (Streptococcus pyogenes) [µg/mL] | MIC (Enterococcus faecalis [8]) [µg/mL] | MIC (Enterococcus faecalis [9]) [µg/mL] | MIC (Enterococcus faecium [10]) [µg/mL] | MIC (Enterococcus faecalis [11]) [µg/mL] | MIC (Staphylococcus aureus [12]) [µg/mL] | hemolysis at 90 mg/L [13] [%] | hemolysis at 180 mg/L [14] [%] | hemolysis at 100 mg/L [15] [%]
1 | CCc1ccccc1CC(=O)N[C@@H](CC(N)=O)C(=O)N[C@@H]1C(=O)N[C@H](c2ccc(O)cc2)C(=O)N[C@H](CCCN)C(=O)N[C@H]([C@@H](C)O)C(=O)N[C@@H](c2ccc(O)cc2)C(=O)N[C@H](c2ccc(O)cc2)C(=O)N[C@@H]([C@H](C)O)C(=O)N[C@@H](Cc2ccccc2)C(=O)N[C@H](CCCN)C(=O)N[C@@H](c2ccc(O[C@H]3O[C@H](CO)[C@@H](O)[C@H](O)[C@@H]3O[C@H]3O[C@H](CO)[C@@H](O)[C@H](O)[C@@H]3O)cc2)C(=O)N[C@H]([C@@H](C)O)C(=O)N[C@@H](c2ccc(O)cc2)C(=O)NCC(=O)N[C@@H](CC(C)C)C(=O)N[C@H](C)C(=O)N[C@@H](c2ccc(O)c(Cl)c2)C(=O)O[C@@H]1C(N)=O | 2 (≈ 0.78 µM) | 0.125 (≈ 0.0488 µM) | > 128 | 4 | 0.5 (≈ 0.195 µM) | ≤ 0.06 | > 128 | 4 | 1 | ≤ 0.125 | 0.5 (≈ 0.195 µM) | 0.5 (≈ 0.195 µM) | 0.5 (≈ 0.195 µM) | 2 | 1 (≈ 0.39 µM) |  |  | 
2 | CC(C)C/C=C/C=C\C(=O)N[C@@H](CC(N)=O)C(=O)N[C@@H]1C(=O)N[C@H](c2ccc(O)cc2)C(=O)N[C@H](CCCN)C(=O)N[C@H]([C@@H](C)O)C(=O)N[C@@H](c2ccc(O)cc2)C(=O)N[C@H](c2ccc(O)cc2)C(=O)N[C@@H]([C@H](C)O)C(=O)N[C@@H](Cc2ccccc2)C(=O)N[C@H](CCCN)C(=O)N[C@@H](c2ccc(O[C@H]3O[C@H](CO)[C@@H](O)[C@H](O)[C@@H]3O[C@H]3O[C@H](CO)[C@@H](O)[C@H](O)[C@@H]3O)cc2)C(=O)N[C@H]([C@@H](C)O)C(=O)N[C@@H](c2ccc(O)cc2)C(=O)NCC(=O)N[C@@H](CC(C)C)C(=O)N[C@H](C)C(=O)N[C@@H](c2ccc(O)c(Cl)c2)C(=O)O[C@@H]1C(N)=O [RAMOPLANIN A2] ({Octa(2Z,4E)dienoyl(7-Me)}-N[X1][dHpg][dOrn][d(aThr)][Hpg][dHpg][aThr]F[dOrn][Hpg(αMan(1-2)αMan)][d(aThr)][Hpg]GL[dA][Hpg(3-Cl)]; ester 2-C) | 1 (≈ 0.392 µM) | < 0.03 | < 32 |  | 0.06 (≈ 0.0235 µM) | < 0.03 | < 32 |  |  | < 0.03 |  | < 0.03 |  |  | 0.25 (≈ 0.0979 µM) | 81 | 79 | 87
3 | CCCCOc1ccc(C(=O)N[C@@H](CC(N)=O)C(=O)NC[C@@H]2C(=O)N[C@H](c3ccc(O)cc3)C(=O)N[C@H](CCCN)C(=O)N[C@H](C(C)C)C(=O)N[C@@H](c3ccc(O)cc3)C(=O)N[C@H](c3ccc(O)cc3)C(=O)N[C@@H]([C@@H](C)O)C(=O)N[C@@H](Cc3ccccc3)C(=O)N[C@H](CCCN)C(=O)N[C@@H](c3ccc(O[C@H]4O[C@H](CO)[C@@H](O)[C@H](O)[C@@H]4O[C@H]4O[C@H](CO)[C@@H](O)[C@H](O)[C@@H]4O)cc3)C(=O)N[C@H]([C@@H](C)O)C(=O)N[C@@H](c3ccc(O)cc3)C(=O)NCC(=O)N[C@@H](CC(C)C)C(=O)N[C@H](C)C(=O)N[C@@H](c3ccc(O)c(Cl)c3)C(=O)O[C@@H]2C(N)=O)cc1 | 4 (≈ 1.53 µM) | 0.25 (≈ 0.0959 µM) | > 32 |  | 0.5 (≈ 0.192 µM) | 0.25 (≈ 0.0959 µM) | > 32 |  |  | 0.125 (≈ 0.048 µM) | 0.25 (≈ 0.0959 µM) | 0.25 (≈ 0.0959 µM) | 0.25 (≈ 0.0959 µM) |  | 4 (≈ 1.53 µM) | 0 | 5 | 
4 | CCOc1ccc(C(=O)N[C@@H](CC(N)=O)C(=O)NC[C@@H]2C(=O)N[C@H](c3ccc(O)cc3)C(=O)N[C@H](CCCN)C(=O)N[C@H](C(C)C)C(=O)N[C@@H](c3ccc(O)cc3)C(=O)N[C@H](c3ccc(O)cc3)C(=O)N[C@@H]([C@@H](C)O)C(=O)N[C@@H](Cc3ccccc3)C(=O)N[C@H](CCCN)C(=O)N[C@@H](c3ccc(O[C@H]4O[C@H](CO)[C@@H](O)[C@H](O)[C@@H]4O[C@H]4O[C@H](CO)[C@@H](O)[C@H](O)[C@@H]4O)cc3)C(=O)N[C@H]([C@@H](C)O)C(=O)N[C@@H](c3ccc(O)cc3)C(=O)NCC(=O)N[C@@H](CC(C)C)C(=O)N[C@H](C)C(=O)N[C@@H](c3ccc(O)c(Cl)c3)C(=O)O[C@@H]2C(N)=O)cc1 | 32 (≈ 12.4 µM) | 1 (≈ 0.388 µM) | > 32 |  | 2 (≈ 0.776 µM) | 2 (≈ 0.776 µM) | > 32 |  |  | < 0.03 | 2 (≈ 0.776 µM) | 2 (≈ 0.776 µM) | 2 (≈ 0.776 µM) |  | 8 (≈ 3.1 µM) | 1 | 1 | 
5 | CCCCCCC(=O)N[C@@H](CC(N)=O)C(=O)NC[C@@H]1C(=O)N[C@H](c2ccc(O)cc2)C(=O)N[C@H](CCCN)C(=O)N[C@H](C(C)C)C(=O)N[C@@H](c2ccc(O)cc2)C(=O)N[C@H](c2ccc(O)cc2)C(=O)N[C@@H]([C@@H](C)O)C(=O)N[C@@H](Cc2ccccc2)C(=O)N[C@H](CCCN)C(=O)N[C@@H](c2ccc(O[C@H]3O[C@H](CO)[C@@H](O)[C@H](O)[C@@H]3O[C@H]3O[C@H](CO)[C@@H](O)[C@H](O)[C@@H]3O)cc2)C(=O)N[C@H]([C@@H](C)O)C(=O)N[C@@H](c2ccc(O)cc2)C(=O)NCC(=O)N[C@@H](CC(C)C)C(=O)N[C@H](C)C(=O)N[C@@H](c2ccc(O)c(Cl)c2)C(=O)O[C@@H]1C(N)=O | 8 (≈ 3.15 µM) | 1 (≈ 0.393 µM) | > 32 |  | 1 (≈ 0.393 µM) | 1 (≈ 0.393 µM) | > 32 |  |  | < 0.03 | 0.5 (≈ 0.197 µM) | 0.5 (≈ 0.197 µM) | 1 (≈ 0.393 µM) |  | 4 (≈ 1.57 µM) | 2 | 1 | 
6 | CCCCOc1ccc(C(=O)N[C@@H](CC(N)=O)C(=O)NC[C@@H]2C(=O)N[C@H](c3ccc(O)cc3)C(=O)N[C@H](CCCN)C(=O)N[C@H](C(C)C)C(=O)N[C@@H](c3ccc(O)cc3)C(=O)N[C@H](c3ccc(O)cc3)C(=O)N[C@@H]([C@@H](C)O)C(=O)N[C@@H](Cc3ccccc3)C(=O)N[C@H](CCCN)C(=O)N[C@@H](c3ccc(O[C@H]4O[C@H](CO)[C@@H](O)[C@H](O)[C@@H]4O[C@H]4O[C@H](CO)[C@@H](O)[C@H](O)[C@@H]4O)cc3)C(=O)N[C@H]([C@@H](C)O)C(=O)N[C@@H](c3ccc(O)cc3)C(=O)NCC(=O)N[C@@H](CC(C)C)C(=O)N[C@H](C)C(=O)N[C@@H](c3ccc(O)c(Cl)c3)C(=O)O[C@@H]2C(N)=O)cc1OCCCC | 16 (≈ 5.97 µM) | 2 (≈ 0.747 µM) | > 32 |  | 8 (≈ 2.99 µM) | 1 (≈ 0.373 µM) | > 32 |  |  | 1 (≈ 0.373 µM) | 1 (≈ 0.373 µM) | 1 (≈ 0.373 µM) | 1 (≈ 0.373 µM) |  | 16 (≈ 5.97 µM) | 0 | 47 | 
7 | CC(C)C[C@@H]1NC(=O)CNC(=O)[C@H](c2ccc(O)cc2)NC(=O)[C@@H]([C@@H](C)O)NC(=O)[C@H](c2ccc(O[C@H]3O[C@H](CO)[C@@H](O)[C@H](O)[C@@H]3O[C@H]3O[C@H](CO)[C@@H](O)[C@H](O)[C@@H]3O)cc2)NC(=O)[C@@H](CCCN)NC(=O)[C@H](Cc2ccccc2)NC(=O)[C@H]([C@@H](C)O)NC(=O)[C@@H](c2ccc(O)cc2)NC(=O)[C@H](c2ccc(O)cc2)NC(=O)[C@@H](C(C)C)NC(=O)[C@@H](CCCN)NC(=O)[C@@H](c2ccc(O)cc2)NC(=O)[C@@H](CNC(=O)[C@H](CC(N)=O)NC(=O)c2ccc(O)cc2)[C@@H](C(N)=O)OC(=O)[C@H](c2ccc(O)c(Cl)c2)NC(=O)[C@@H](C)NC1=O | > 32 | 32 (≈ 12.5 µM) | > 32 |  | 32 (≈ 12.5 µM) | 32 (≈ 12.5 µM) | > 32 |  |  | 0.5 (≈ 0.196 µM) | 32 (≈ 12.5 µM) | 16 (≈ 6.27 µM) | 32 (≈ 12.5 µM) |  | > 32 | 0 | 4 | 

— ChEMBL document CHEMBL1145390, “Synthesis and preliminary biological characterization of new semisynthetic derivatives of ramoplanin” (J Med Chem, 2007)
